Earlier results as cited in paper PMC12266345, “Discovery and characterization of selective lipase-inhibiting polyheterocyclic derivatives: a combined in silico and in vitro study” (Turkish Journal of Biology, 2025).
Converted amounts (≈) assume the structure as drawn. Read-outs that look alike come from different tables or passages of the source.

Target: lipase
[1] = ref Ruiz et al., 2006, Benarous et al., 2015

CN(C)[C@@H]1C(O)=C(C(N)=O)C(=O)[C@@]2(O)C(O)=C3C(=O)c4c(O)cccc4[C@@](C)(O)[C@H]3C[C@@H]12 [tetracycline]
IC50 lipase inhibition (ref Liu et al., 2006): 470 ± 0.005 µg/mL (≈ 1060 µM)

COc1ccc2c3c([nH]c2c1)C(C)=NCC3 [harmaline]
IC50 lipase inhibition [1]: 830 µg/mL (≈ 3870 µM)

O=c1cc(O)cc(/C=C/c2ccc(O)c(O)c2)o1 [hispidin]
IC50 lipase inhibition [1]: 179 µg/mL (≈ 727 µM)

Cc1nc(-c2ccc(OCC(C)C)c(C#N)c2)sc1C(=O)O [febuxostat]
IC50 lipase inhibition (ref Serseg and Benarous, 2018): 660 µg/mL (≈ 2090 µM)

O=C(N[C@H](CO)[C@H](O)c1ccc([N+](=O)[O-])cc1)C(Cl)Cl [Chloramphenicol]
IC50 lipase inhibition (ref Liu et al., 2006): 220 ± 0.003 µg/mL (≈ 681 µM)

CCOC(=O)N1CCC(=C2c3ccc(Cl)cc3CCc3cccnc32)CC1 [loratadine]
IC50 lipase inhibition (ref Benarous et al., 2018): 440 ± 0.02 µg/mL (≈ 1150 µM)

Nc1nc(=O)c2nc(CNc3ccc(C(=O)N[C@@H](CCC(=O)O)C(=O)O)cc3)cnc2[nH]1 [folic acid]
IC50 lipase inhibition (ref Serseg and Benarous, 2018): 640 µg/mL (≈ 1450 µM)

O.Oc1cc(O)c2c(c1)O[C@H](c1ccc(O)c(O)c1)[C@@H](O)C2 [catechin]
IC50 lipase inhibition [1]: 183 µg/mL
